{"source": "ChEMBL document CHEMBL5729293", "about": "“Inhibitors of KEAP1-Nrf2 protein-protein interaction” (2022)", "data": [{"assay": "Fluorescence Based Assay: The details of the KEAP1 KELCH ThermoFluor® Assay Construct are as follows: Kelch domain of human KEAP 1 (321-624 aa) was used in the assay. The protein was expressed in E. coli with 6His tag that was cleaved prior to receipt for use.ThermoFluor® experiments were carried out using instruments owned by Janssen Research and Discovery, L.L.C. through its acquisition of 3-Dimensional Pharmaceuticals, Inc. 1,8-ANS (Invitrogen) was used as a fluorescent dye. Protein (KEAP Kelch) and compound solutions were dispensed into black 384-well polypropylene PCR microplates (Abgene) and overlayed with silicone oil (1 μL, Fluka, type DC 200) to prevent evaporation.Reference wells contained KEAP Kelch without compounds, and the assay conditions were as follows: 1.1 μM (0.037mg/mL) KEAP Kelch, 80 μM 1,8-ANS, 25 mM PIPES, pH 7.0, 100 mM NaCl, 0.002% Tween-20.", "units": {"Kd": "nM"}, "values": [{"smiles": "Cc1ccc([C@H](CC(=O)O)c2ccn3c(C(F)(F)F)nnc3c2C)cc1CN1CC2(CC2)Oc2ncc(C#N)cc2S1(=O)=O", "Kd": "< 1"}, {"smiles": "Cc1ccc([C@@H](CC(=O)O)c2ccn3c(C(F)(F)F)nnc3c2C)cc1CN1C[C@@H]2CCCCN2c2ncccc2S1(=O)=O", "Kd": "< 1"}, {"smiles": "Cc1ccc([C@H](CC(=O)O)c2ccc3c(nnn3C3CC3)c2C)cc1CN1C[C@H]2CCCN2c2ncccc2S1(=O)=O", "Kd": "< 1"}, {"smiles": "CCn1nnc2c(C)c(C(CC(=O)O)c3ccc(C)c(CN4C[C@H]5CCCN5c5ncccc5S4(=O)=O)n3)ccc21", "note": "(stereo not given in full)", "Kd": "< 1"}, {"smiles": "Cc1ccc([C@@H](CC(=O)O)c2ccn3c(C(F)(F)F)nnc3c2C)cc1CN1C[C@H]2CCCN2c2ccccc2S1(=O)=O", "Kd": "< 1"}, {"smiles": "Cc1ccc(C(CC(=O)O)c2ccn3c(C(F)(F)F)nnc3c2C)cc1CN1CC(C)(C)Oc2ncccc2S1(=O)=O", "note": "(stereo not given)", "Kd": "< 1"}, {"smiles": "Cc1ccc(C(CC(=O)O)c2ccn3c(C(F)(F)F)nnc3c2C)cc1CN1C[C@H]2CCCN2c2ncccc2S1(=O)=O", "note": "(stereo not given in full)", "Kd": "< 1"}, {"smiles": "Cc1ccc([C@@H](CC(=O)O)c2ccn3c(C(F)(F)F)nnc3c2C)cc1CN1CC2(COC2)Oc2ccccc2S1(=O)=O", "Kd": "< 1"}, {"smiles": "Cc1ccc([C@H](CC(=O)O)c2ccn3c(C(F)(F)F)nnc3c2C)cc1CN1C[C@H]2CCCCN2c2ncccc2S1(=O)=O", "Kd": "< 1"}, {"smiles": "Cc1ccc(C(CC(=O)O)c2ccn3c(C(F)(F)F)nnc3c2)cc1CN1C[C@@H]2CCCN2c2ncccc2S1(=O)=O", "note": "(stereo not given in full)", "Kd": "< 1"}, {"smiles": "Cc1ccc([C@@H](CC(=O)O)c2ccc3c(nnn3CC3CC3)c2C)cc1CN1C[C@H]2CCCCN2c2ncccc2S1(=O)=O", "Kd": "< 1"}, {"smiles": "CC[C@@H]1CN(Cc2cc([C@@H](CC(=O)O)c3ccn4c(C(F)(F)F)nnc4c3C)ccc2C)S(=O)(=O)c2cccnc2O1", "Kd": "< 1"}, {"smiles": "Cc1ccc([C@H](CC(=O)O)c2ccn3c(C(F)(F)F)nnc3c2C)cc1CN1CC2(CC2)Oc2ncc(Cl)cc2S1(=O)=O", "Kd": "< 1"}, {"smiles": "Cc1ccc(C(CC(=O)O)c2ccn3c(C(F)(F)F)nnc3c2C)cc1CN1C[C@@H]2CCCCN2c2ncccc2S1(=O)=O", "note": "(stereo not given in full)", "Kd": "< 1"}, {"smiles": "CCn1nnc2c(C)c(C(CC(=O)O)c3ccc(C)c(CN4CC5(COC5)Oc5ncccc5S4(=O)=O)n3)ccc21", "note": "(stereo not given)", "Kd": "< 1"}, {"smiles": "Cc1ccc([C@@H](CC(=O)O)c2ccn3c(C(F)(F)F)nnc3c2C)cc1CN1CC2(COC2)Oc2ncccc2S1(=O)=O", "Kd": "< 1"}, {"smiles": "Cc1ccc([C@H](CC(=O)O)c2ccc3c(nnn3CC3CC3)c2C)cc1CN1C[C@@H]2CCCCN2c2ncccc2S1(=O)=O", "Kd": "< 1"}, {"smiles": "Cc1ccc(C(CC(=O)O)c2cc(OC(F)F)c3c(c2)nnn3C)cc1CN1C[C@H]2CCCN2c2ncccc2S1(=O)=O", "note": "(stereo not given in full)", "Kd": "< 1"}, {"smiles": "Cc1ccc([C@H](CC(=O)O)c2ccn3c(C(F)(F)F)nnc3c2C)cc1CN1CC(C)(C)Oc2ncccc2S1(=O)=O", "Kd": "< 1"}, {"smiles": "Cc1ccc([C@@H](CC(=O)O)c2ccc3c(nnn3C3CC3)c2C)cc1CN1C[C@]2(C)CCCN2c2ncccc2S1(=O)=O", "Kd": "< 1"}, {"smiles": "CCn1nnc2c(C)c([C@H](CC(=O)O)c3ccc(C)c(CN4C[C@H]5CCCN5c5ncccc5S4(=O)=O)n3)ccc21", "Kd": "< 1"}, {"smiles": "Cc1cnc2c(c1)S(=O)(=O)N(Cc1cc([C@H](CC(=O)O)c3ccn4c(C(F)(F)F)nnc4c3C)ccc1C)CC1(CCOCC1)O2", "Kd": "< 1"}, {"smiles": "Cc1cnc2c(c1)S(=O)(=O)N(Cc1cc(C(c3ccc4c(nnn4C4CC4)c3C)C(C)(C)C(=O)O)cnc1C)CC1(CCOCC1)O2", "note": "(stereo not given)", "Kd": "< 1"}, {"smiles": "Cc1ccc(C(CC(=O)O)c2ccn3c(C(F)(F)F)nnc3c2C)cc1CN1C[C@H]2CCCCN2c2ncccc2S1(=O)=O", "note": "(stereo not given in full)", "Kd": "< 1"}, {"smiles": "Cc1ccc([C@H](CC(=O)O)c2ccn3c(C(F)(F)F)nnc3c2C)cc1CN1C[C@H]2CCCN2c2ccccc2S1(=O)=O", "Kd": "< 1"}, {"smiles": "CC[C@@H]1CN(Cc2cc(C(CC(=O)O)c3ccn4c(C(F)(F)F)nnc4c3C)ccc2C)S(=O)(=O)c2cccnc2O1", "note": "(stereo not given in full)", "Kd": "< 1"}, {"smiles": "Cc1ccc(C(CC(=O)O)c2ccc3c(nnn3C3CC3)c2C)cc1CN1CC2(COC2)Oc2ccccc2S1(=O)=O", "note": "(stereo not given)", "Kd": "< 1"}, {"smiles": "CC[C@@H]1CN(Cc2cc([C@H](CC(=O)O)c3ccn4c(C(F)(F)F)nnc4c3C)ccc2C)S(=O)(=O)c2cccnc2O1", "Kd": "< 1"}, {"smiles": "Cc1ccc(C(CC(=O)O)c2ccc3c(nnn3C3CC3)c2C)cc1CN1C[C@H]2CCCN2c2ncccc2S1(=O)=O", "note": "(stereo not given in full)", "Kd": "< 1"}, {"smiles": "CC[C@@H]1CN(Cc2cc(C(CC(=O)O)c3cc(OC(F)F)c4c(c3)nnn4C)ccc2C)S(=O)(=O)c2cccnc2O1", "note": "(stereo not given in full)", "Kd": "< 1"}, {"smiles": "Cc1ccc([C@@H](CC(=O)O)c2ccn3c(C(F)(F)F)nnc3c2C)cc1CN1C[C@H]2CCCCN2c2ncccc2S1(=O)=O", "Kd": "< 1"}, {"smiles": "CCc1nnc2c(C)c([C@H](CC(=O)O)c3ccc(C)c(CN4C[C@H]5CCCN5c5ccccc5S4(=O)=O)c3)ccn12", "Kd": "< 1"}, {"smiles": "Cc1ccc(C(CC(=O)O)c2ccc3c(nnn3C3CC3)c2C)cc1CN1C[C@]2(C)CCCN2c2ncccc2S1(=O)=O", "note": "(stereo not given in full)", "Kd": "< 1"}, {"smiles": "CC[C@@H]1CN(Cc2cc([C@H](CC(=O)O)c3ccn4c(C(F)(F)F)nnc4c3)ccc2C)S(=O)(=O)c2cccnc2O1", "Kd": "< 1"}, {"smiles": "Cc1ccc([C@H](CC(=O)O)c2ccn3c(C(F)(F)F)nnc3c2C)cc1CN1C[C@H]2COCCN2c2ncc(Cl)cc2S1(=O)=O", "Kd": "< 1"}, {"smiles": "Cc1ccc([C@H](CC(=O)O)c2ccn3c(C(F)(F)F)nnc3c2C)cc1CN1C[C@H]2COCCN2c2ncc(C#N)cc2S1(=O)=O", "Kd": "< 1"}, {"smiles": "Cc1ccc([C@H](CC(=O)O)c2ccn3c(C(F)(F)F)nnc3c2)cc1CN1C[C@@H]2CCCN2c2ncccc2S1(=O)=O", "Kd": "< 1"}, {"smiles": "Cc1ccc(C(CC(=O)O)c2ccc3c(nnn3CC3CC3)c2C)cc1CN1C[C@H]2CCCCN2c2ncccc2S1(=O)=O", "note": "(stereo not given in full)", "Kd": "< 1"}, {"smiles": "Cc1ccc([C@@H](CC(=O)O)c2cc(OC(F)F)c3c(c2)nnn3C)cc1CN1C[C@H]2CCCN2c2ncccc2S1(=O)=O", "Kd": "< 1"}, {"smiles": "CCn1nnc2c(C)c(C(CC(=O)O)c3ccc(C)c(CN4CC5(CC5)Oc5ncccc5S4(=O)=O)n3)ccc21", "note": "(stereo not given)", "Kd": "< 1"}, {"smiles": "Cc1ccc([C@H](CC(=O)O)c2ccc3c(nnn3C3CC3)c2C)cc1CN1CC2(COC2)Oc2ccccc2S1(=O)=O", "Kd": "< 1"}, {"smiles": "Cc1ccc([C@H](CC(=O)O)c2ccn3c(C4CC4)nnc3c2C)cc1CN1CC2(CC2)Oc2ncc(F)cc2S1(=O)=O", "Kd": "< 1"}, {"smiles": "Cc1ccc([C@@H](CC(=O)O)c2ccn3c(C(F)(F)F)nnc3c2)cc1CN1C[C@@H]2CCCN2c2ncccc2S1(=O)=O", "Kd": "< 1"}, {"smiles": "Cc1ccc([C@H](CC(=O)O)c2ccn3c(C(F)(F)F)nnc3c2C)cc1CN1CC2(COC2)Oc2ncccc2S1(=O)=O", "Kd": "< 1"}, {"smiles": "CC[C@@H]1CN(Cc2cc(C(CC(=O)O)c3ccn4c(C(F)(F)F)nnc4c3)ccc2C)S(=O)(=O)c2cccnc2O1", "note": "(stereo not given in full)", "Kd": "< 1"}, {"smiles": "Cc1ccc([C@H](CC(=O)O)c2ccc3c(nnn3C3CC3)c2C)cc1CN1C[C@H]2CCCCN2c2ncccc2S1(=O)=O", "Kd": "< 1"}, {"smiles": "Cc1ccc([C@@H](CC(=O)O)c2ccn3c(C(F)(F)F)nnc3c2C)cc1CN1C[C@]2(C)CCCN2c2ncccc2S1(=O)=O", "Kd": "< 1"}, {"smiles": "Cc1ccc([C@H](CC(=O)O)c2ccn3c(C(F)(F)F)nnc3c2C)cc1CN1C[C@@H]2CCCCN2c2ncc(Cl)cc2S1(=O)=O", "Kd": "< 1"}, {"smiles": "Cc1ccc([C@H](CC(=O)O)c2ccn3c(C(F)(F)F)nnc3c2C)cc1CN1C[C@@H]2CCCCN2c2ncccc2S1(=O)=O", "Kd": "< 1"}, {"smiles": "CCn1nnc2c(C)c(C(CC(=O)O)c3ccc(C)c(CN4CC5(COC5)Oc5ncccc5S4(=O)=O)c3)ccc21", "note": "(stereo not given)", "Kd": "< 1"}, {"smiles": "Cc1ccc(C(CC(=O)O)c2ccc3c(nnn3C3CC3)c2C)cc1CN1C[C@@H]2CCCCN2c2ccccc2S1(=O)=O", "note": "(stereo not given in full)", "Kd": "< 1"}, {"smiles": "Cc1ccc(C(CC(=O)O)c2ccc3c(nnn3CC3CC3)c2C)cc1CN1C[C@@H]2CCCCN2c2ncccc2S1(=O)=O", "note": "(stereo not given in full)", "Kd": "< 1"}, {"smiles": "Cc1ccc([C@H](CC(=O)O)c2ccn3c(C(F)(F)F)nnc3c2C)cc1CN1C[C@H]2CCCN2c2ncc(C#N)cc2S1(=O)=O", "Kd": "< 1"}, {"smiles": "Cc1ccc(C(CC(=O)O)c2ccn3c(C(F)(F)F)nnc3c2C)cc1CN1CC2(COC2)Oc2ccccc2S1(=O)=O", "note": "(stereo not given)", "Kd": "< 1"}, {"smiles": "CC[C@@H]1CN(Cc2cc([C@H](CC(=O)O)c3cc(OC(F)F)c4c(c3)nnn4C)ccc2C)S(=O)(=O)c2cccnc2O1", "Kd": "< 1"}, {"smiles": "CCn1nnc2c(C)c([C@@H](CC(=O)O)c3ccc(C)c(CN4CC5(CC5)Oc5ncccc5S4(=O)=O)n3)ccc21", "Kd": "< 1"}, {"smiles": "Cc1ccc([C@@H](CC(=O)O)c2ccc3c(nnn3C3CC3)c2C)cc1CN1C[C@H]2CCCCN2c2ncccc2S1(=O)=O", "Kd": "< 1"}, {"smiles": "Cc1ccc(C(CC(=O)O)c2ccn3c(C(F)(F)F)nnc3c2C)cc1CN1C[C@H]2CCCN2c2ccccc2S1(=O)=O", "note": "(stereo not given in full)", "Kd": "< 1"}, {"smiles": "CCn1nnc2c(C)c([C@H](CC(=O)O)c3ccc(C)c(CN4CC5(CC5)Oc5ncccc5S4(=O)=O)n3)ccc21", "Kd": "< 1"}, {"smiles": "CC[C@@H]1CN(Cc2cc([C@@H](CC(=O)O)c3cc(OC(F)F)c4c(c3)nnn4C)ccc2C)S(=O)(=O)c2cccnc2O1", "Kd": "< 1"}, {"smiles": "Cc1ccc([C@H](CC(=O)O)c2ccn3c(C(F)(F)F)nnc3c2C)cc1CN1C[C@@H]2CCN2c2ncccc2S1(=O)=O", "Kd": "< 1"}, {"smiles": "Cc1ccc([C@@H](CC(=O)O)c2ccc3c(nnn3CC3CC3)c2C)cc1CN1C[C@@H]2CCCCN2c2ncccc2S1(=O)=O", "Kd": "< 1"}, {"smiles": "Cc1ccc(C(CC(=O)O)c2ccn3c(C(F)(F)F)nnc3c2C)cc1CN1CC2(COC2)Oc2ncccc2S1(=O)=O", "note": "(stereo not given)", "Kd": "< 1"}, {"smiles": "CCn1nnc2c(C)c([C@H](CC(=O)O)c3ccc(C)c(CN4CC5(COC5)Oc5ccccc5S4(=O)=O)n3)ccc21", "Kd": "< 1"}, {"smiles": "Cc1ccc([C@H](CC(=O)O)c2ccc3c(nnn3CC3CC3)c2C)cc1CN1C[C@H]2CCCCN2c2ncccc2S1(=O)=O", "Kd": "< 1"}, {"smiles": "CCc1nnc2c(C)c([C@@H](CC(=O)O)c3ccc(C)c(CN4C[C@H]5CCCN5c5ncccc5S4(=O)=O)c3)ccn12", "Kd": "< 1"}, {"smiles": "Cc1cnc2c(c1)S(=O)(=O)N(Cc1cc([C@H](c3ccc4c(nnn4C4CC4)c3C)C(C)(C)C(=O)O)cnc1C)CC1(CCOCC1)O2", "Kd": "< 1"}, {"smiles": "Cc1ccc([C@H](CC(=O)O)c2ccn3c(C(F)(F)F)nnc3c2C)cc1CN1C[C@H]2CCCCN2c2nc(C(N)=O)ccc2S1(=O)=O", "Kd": "< 1"}, {"smiles": "CCc1nnc2c(C)c(C(CC(=O)O)c3ccc(C)c(CN4C[C@H]5CCCN5c5ncccc5S4(=O)=O)c3)ccn12", "note": "(stereo not given in full)", "Kd": "< 1"}, {"smiles": "CCn1nnc2c(C)c([C@H](CC(=O)O)c3ccc(C)c(CN4CC5(COC5)Oc5ncccc5S4(=O)=O)n3)ccc21", "Kd": "< 1"}]}]}
